Measurements: paper PMC10649961, “Novel Mitochondria-Targeted Amphiphilic Aminophosphonium Salts and Lipids Nanoparticles: Synthesis, Antitumor Activity and Toxicity” (Nanomaterials, 2023)
Where two headings read alike, the source gives them in different places.

Legend:
[1] = system: Enterococcus faecalis ATCC 29212; experiment: Antimicrobial activity, serial microdilutions, Ef; type: cell-based; parameters: key to Minimum Inhibitory Concentration (MIC) / Minimum bactericidal and fungicidal concentrations (MBC, MFC): – means non-active; settings: for MIC: Enterococcus faecalis, ATCC29212, read-out: Minimum Inhibitory Concentration (MIC)
In short: (§1)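 Compounds were serially diluted in broth: Mueller-Hinton for the bacterial strains, Sabouraud for the yeast. Each determination was done in triplicate.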

[2] = system: A549
[3] = system: DU-145; experiment: cells; settings: Homo sapiens, DU-145, 48 h, read-out: Cytotoxic Effects (IC50), DU-145, MTT assay, 48 h
[4] = system: MRSA-2; experiment: Antimicrobial activity, serial microdilutions, MRSA-2; type: cell-based, S. aureus; settings: Staphylococcus aureus; for MIC: read-out: Minimum Inhibitory Concentration (MIC); for MBC: read-out: Minimum bactericidal and fungicidal concentrations (MBC, MFC)
In short: as §1

[5] = system: Hep G2; experiment: cells; settings: Homo sapiens, HepG2, 48 h, read-out: Cytotoxic Effects (IC50)
[6] = system: HuTu 80; settings: calculated relative to the cell line WI38 (a)
[7] = system: PANC-1; experiment: cells; settings: Homo sapiens, PANC-1, 48 h, read-out: Cytotoxic Effects (IC50)
[8] = system: Escherichia coli ATCC 25922; experiment: Antimicrobial activity, serial microdilutions, Ec; type: cell-based; parameters: key to Minimum Inhibitory Concentration (MIC) / Minimum bactericidal and fungicidal concentrations (MBC, MFC): – means non-active
In short: (§2)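 Activity was read from serial microdilutions, with bacteria grown in Mueller-Hinton broth and Candida in Sabouraud broth. The MRSA-1 strain came from a patient with chronic tonsillitis.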

[9] = system: SK-OV-3; settings: reference normal cell line not marked at the place (ns cells)
[10] = system: M-HeLa; experiment: cells; settings: Homo sapiens, 48 h, read-out: Cytotoxic Effects (IC50)
[11] = system: PC3; settings: calculated relative to the cell line WI38 (a)
[12] = system: Hep G2
[13] = system: MRSA-1; experiment: Antimicrobial activity, serial microdilutions, MRSA-1; type: cell-based, S. aureus; settings: Staphylococcus aureus; for MIC: read-out: Minimum Inhibitory Concentration (MIC); for MBC: read-out: Minimum bactericidal and fungicidal concentrations (MBC, MFC)
In short: as §2

[14] = system: Pseudomonas aeruginosa ATCC 9027; experiment: Antimicrobial activity, serial microdilutions, Pa; type: cell-based; parameters: key to Minimum Inhibitory Concentration (MIC) / Minimum bactericidal and fungicidal concentrations (MBC, MFC): – means non-active
In short: as §2

[15] = system: Candida albicans ATCC 10231; experiment: Antimicrobial activity, serial microdilutions, Ca; type: cell-based; parameters: key to Minimum Inhibitory Concentration (MIC) / Minimum bactericidal and fungicidal concentrations (MBC, MFC): – means non-active; settings: Ca
In short: as §2

[16] = system: Staphylococcus aureus ATCC 6538 P FDA 209P; experiment: Antimicrobial activity, serial microdilutions, Sa; type: cell-based; settings: Staphylococcus aureus; for MIC: read-out: Minimum Inhibitory Concentration (MIC); for MBC: read-out: Minimum bactericidal and fungicidal concentrations (MBC, MFC)
In short: as §1

[17] = system: MCF-7; experiment: cells; settings: Homo sapiens, MCF7, 48 h, read-out: Cytotoxic Effects (IC50)
[18] = system: Bacillus cereus ATCC 10702 NCTC 8035; experiment: Antimicrobial activity, serial microdilutions, Bc; type: cell-based; settings: Bacillus cereus; for MIC: Bc, read-out: Minimum Inhibitory Concentration (MIC); for MBC: read-out: Minimum bactericidal and fungicidal concentrations (MBC, MFC)
In short: as §2

[19] = system: T98G; experiment: cells; settings: Homo sapiens, 48 h, read-out: Cytotoxic Effects (IC50)
[20] = system: M-HeLa; settings: calculated relative to the cell line WI38 (a)
[21] = system: A549; experiment: cells; settings: Homo sapiens, A549, 48 h, read-out: Cytotoxic Effects (IC50)
[22] = system: PANC-1; settings: calculated relative to the cell line WI38 (a)
[23] = system: T98G; settings: calculated relative to the cell line WI38 (a)
[24] = system: SK-OV-3; experiment: cells; settings: Homo sapiens, SK-OV-3, 48 h, read-out: Cytotoxic Effects (IC50)
[25] = system: HuTu 80; experiment: cells; settings: Homo sapiens, HuTu80, 48 h, read-out: Cytotoxic Effects (IC50)
[26] = system: HuTu 80 cells; experiment: Cell cycle analysis, propidium iodide flow cytometry; type: cell-based, human; settings: HuTu 80, IC50, 48 h, compared with the control
Method: The DNA content and cell-cycle distribution after compounds 4b, 5b, 6a, and 8 IC50 concentrations were estimated by flow cytometry. After washing with PBS, treated cells were suspended in 150 μL of PBS, then 0.5 mL of phosphate-citrate buffer (0.05 M, pH 4.0) was added, and the suspension was incubated at room temperature for 5 min to facilitate the extraction of low-molecular-weight DNA. Following centrifugation, the cells were resuspended in 150 μL DNA staining solution (20 μg/mL propidium iodide, 200 μg/mL […]) and incubated in the CO2 incubator (37 °C for 30 min). The distribution of the cell cycle was determined by fluorescence analysis of HuTu 80 cells stained with propidium iodide using Guava easyCyte (Guava easyCyte).

[27] = system: DU-145; settings: calculated relative to the cell line WI38 (a)
[28] = system: MCF-7; settings: calculated relative to the cell line WI38 (a)
[29] = reference normal cell line not marked at the place (ns cells)
[30] = calculated relative to the cell line WI38 (a)

Structure (SMILES)	Minimum bactericidal and fungicidal concentrations (MBC, MFC) [1]	MIC [1]	IC50 [3]	MIC [4]	MBC [4]	IC50 [5]	selectivity index (SI) [6]	IC50 [7]	Minimum bactericidal and fungicidal concentrations (MBC, MFC) [8]	selectivity index (SI) [9]	IC50 [10]	selectivity index (SI) [11]	MIC [13]	MBC [13]	Minimum Inhibitory Concentration (MIC) [14]	Minimum bactericidal and fungicidal concentrations (MBC, MFC) [14]	Minimum Inhibitory Concentration (MIC) [15]	Minimum bactericidal and fungicidal concentrations (MBC, MFC) [15]	MIC [16]	MBC [16]	further results
CCCCCC[P+](c1ccccc1)(c1ccccc1)N(CC)CC [6a, (Diethylamino)(hexyl)diphenylphosphonium iodide]	–	125 ± 11 µM	2.6 ± 0.3 µM	62.5 ± 5.6 µM	62.5 ± 5.6 µM	34.4 ± 2.4 µM	277	5.5 ± 0.4 µM	–	ns (ns—no selectivity)	5.8 ± 0.4 µM	6.9	62.5 ± 5.3 µM	500 ± 47 µM	–	–	–	–	62.5 ± 5.5 µM	125 ± 10 µM	selectivity index (SI) [2, 29]: ns (ns—no selectivity); Minimum Inhibitory Concentration (MIC) [8]: –; selectivity index (SI) [12, 29]: ns (ns—no selectivity); IC50 [17]: 17 ± 1.3 µM; MIC [18]: 31.3 ± 2.3 µM; MBC [18]: 500 ± 46 µM; IC50 [19]: 18.4 ± 1.5 µM; selectivity index (SI) [20]: 4.8; IC50 [21]: 48.2 ± 3.4 µM; selectivity index (SI) [22]: 5.0; selectivity index (SI) [23]: 1.5; IC50 [24]: 36.8 ± 2.6 µM; IC50 [25]: 0.1 ± 0.007 µM; effect on cell cycle (in words) [26]: slight change in the cell cycle; selectivity index (SI) [27]: 11; selectivity index (SI) [28]: 1.6
CCCCCCCC[P+](c1ccccc1)(c1ccccc1)c1ccccc1 [compound 8, Octyltriphenylphosphonium iodide, reference compound]	–	15.6 ± 1.2 µM	0.4 ± 0.03 µM	3.9 ± 0.3 µM	15.6 ± 1.3 µM	1.6 ± 0.1 µM	102	0.3 ± 0.02 µM	–	ns (ns—no selectivity)	0.45 ± 0.04 µM	23	1.9 ± 0.1 µM	15.6 ± 1.2 µM	–	–	–	–	0.9 ± 0.07 µM	62.5 ± 5.3 µM	selectivity index (SI) [2, 30]: 1.1; MIC ([8]; Escherichia coli, ATCC25922, read-out: Minimum Inhibitory Concentration (MIC)): 500 ± 47 µM; selectivity index (SI) [12, 30]: 5.8; IC50 [17]: 4.2 ± 0.3 µM; MIC [18]: 0.9 ± 0.07 µM; MBC [18]: 500 ± 47 µM; IC50 [19]: 0.6 ± 0.05 µM; selectivity index (SI) [20]: 20; IC50 [21]: 8.7 ± 0.7 µM; selectivity index (SI) [22]: 31; selectivity index (SI) [23]: 15; IC50 [24]: 9.8 ± 0.7 µM; IC50 [25]: 0.09 ± 0.006 µM; effect on cell cycle (in words) [26]: significant delay of cells in the G0/G1 phase; selectivity index (SI) [27]: 23; selectivity index (SI) [28]: 2.2
